IC50 data for 39 compounds are collected here from patent US20240166641A1, “HETEROCYCLES AND USES THEREOF” (Kumquat Biosciences Inc., priority 2021, published 2024).

Bounds are passed on as bounds.

One assay concerns the target T1, PTPN2 (Homo sapiens, UniProt P17706).
T1 sequence (P17706 1-415): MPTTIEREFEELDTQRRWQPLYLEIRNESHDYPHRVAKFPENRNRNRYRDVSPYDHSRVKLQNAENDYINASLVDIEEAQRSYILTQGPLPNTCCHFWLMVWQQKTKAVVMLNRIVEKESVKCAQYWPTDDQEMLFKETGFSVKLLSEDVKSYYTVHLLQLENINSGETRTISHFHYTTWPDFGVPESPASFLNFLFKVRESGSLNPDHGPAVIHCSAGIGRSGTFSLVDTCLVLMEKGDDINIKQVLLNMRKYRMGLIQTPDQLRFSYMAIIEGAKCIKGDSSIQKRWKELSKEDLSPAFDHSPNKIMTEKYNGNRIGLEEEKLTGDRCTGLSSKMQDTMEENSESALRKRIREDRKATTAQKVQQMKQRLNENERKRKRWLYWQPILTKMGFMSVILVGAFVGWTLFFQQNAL
The assay can be described thus: Phosphatase activity assay (Bio-Biochem-DiFMUP), PTPN2. Type of assay: biochemical. The settings on record: DiFMUP substrate, room temperature. The source says: (§1) The selectivity and potency of a small molecule PTPN2 inhibitor as provided herein (e.g., a derivative of Formula I, II, III, IV; or sub-formulae thereof) against one or more protein tyrosine phosphatase (PTP) enzymes, and specifically against PTPN2, can be assessed in various ways. The one or more PTP enzymes comprise Mycobacterium protein tyrosine phosphatase A (mPTPA), Mycobacterium protein tyrosine phosphatase B (mPTPB), PTPN1 (i.e., PTP1B), PTPN2 (i.e., TC-PTP), SHP-1, SHP-2, FAP-1, Meg2, HePTP, Laforin, VHX, VHR, LMWPTP, Cdcl4A, LAR, CD45, PTPRG, a fragment thereof, a variant thereof, and a combination thereof. Selectivity and potency of a small molecule PTPN2 inhibitor is evaluated using a PTP activity inhibition assay. The assay is performed using a buffer comprising 50 millimolar (mM) Bis-Tris (pH=6.3), 2 mM EDTA, and 5 mM N,N′-dimethyl-N,N′-bis(mercaptoacetyl)hydrazine (DMH). The assay is performed using a phosphated substrate, e.g., 10 mM fluorescein diphosphate (FDP) that is stored at −20° C. Alternatively or in addition to, the assay is performed using 10 mM DiFMUP as a phosphated substrate. Each PTP enzyme is diluted in an enzyme dilution buffer comprising 50 mM Bis-Tris (pH=6.3), 2 mM EDTA, 5 mM DMH, 20% (vol./vol.) glycerol, and 0.01% (vol./vol.) Triton X-100.
(§2) The assay is carried out at room temperature in 96 well plates. A reaction mixture of 170 microliter (μL) of the assay buffer comprising 10 μM FDP or DiFMIUP is added to each well. A 10 μL volume of (i) a compound disclosed herein (e.g., PTPN2 inhibitor) dissolved in DMSO at one of 10 concentrations from a serial dilution or (ii) DMSO alone for control is added to each well. The reaction is initiated by adding 20 μL of a PTP enzyme (e.g., PTPN2) that is diluted in the enzyme dilution buffer. The phosphatase activity of the PTP enzyme is assessed by monitoring appearance of a fluorescent product (e.g., fluorescein monophosphate (FMP) from FDP, or 6,8-difluoro-7-hydroxyl-4-coumarin (DiFMU) from DiFMUP) continuously for about 15 to 30 minutes, using the SpectraMax® Gemini™ XPS Microplate Spectrofluorometer (Molecular Devices®) with excitation of 440 nm and emission at 530 nm (cutoff filter at 525 nm) for FMP and excitation at 360 nm and emission at 450 nm (cutoff filter at 435 nm) for DiFMU. The rate (e.g., the initial rate) of FMP or DiFMU formation is plotted against the concentration of the small molecule PTPN2 inhibitor, and the data is fitted (e.g., using a 4-parameter equation) to determine the inflection point of the fit as the IC50 of the small molecule PTPN2 inhibitor for a specific enzyme. Table 6 summarizes the IC50 values of compounds disclosed herein against PTPN2 and PTPN1.

The target of a further assay is T2, PTP1B (Homo sapiens, UniProt P18031).
T2 sequence (P18031 1-435): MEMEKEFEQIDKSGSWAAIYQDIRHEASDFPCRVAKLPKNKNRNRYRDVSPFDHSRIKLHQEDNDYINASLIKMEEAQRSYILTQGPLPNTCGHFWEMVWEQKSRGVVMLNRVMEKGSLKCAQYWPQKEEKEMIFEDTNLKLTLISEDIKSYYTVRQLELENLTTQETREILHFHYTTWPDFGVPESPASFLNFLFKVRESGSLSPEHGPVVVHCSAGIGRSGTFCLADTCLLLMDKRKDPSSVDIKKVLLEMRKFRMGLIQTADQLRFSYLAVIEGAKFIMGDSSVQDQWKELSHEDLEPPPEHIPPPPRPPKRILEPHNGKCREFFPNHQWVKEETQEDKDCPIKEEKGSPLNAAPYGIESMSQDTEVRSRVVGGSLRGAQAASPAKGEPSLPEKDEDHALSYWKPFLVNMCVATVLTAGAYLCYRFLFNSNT
As to the kind of experiment: Phosphatase activity assay (Bio-Biochem-DiFMUP), PTP1B. Type of assay: biochemical. The following applies: DiFMUP substrate, room temperature.
Excerpt: as §1, §2

For the compound `CC(C)CCNc1cc2cc(N3CC(=O)NS3(=O)=O)c(O)cc2n(C2CC2)c1=O` [Compound 145], the IC50 at PTPN2 and on PTP1B was ≤ 1000 nM throughout.

As for `COc1cc2c(F)c(N3CC(=O)NS3(=O)=O)c(O)cc2n(C)c1=O` [Compound 146], the IC50 on PTPN2 and on PTP1B was ≤ 1000 nM each time.

As to `O=C1CN(c2cc3nc(C4CCOC4)ccc3cc2O)S(=O)(=O)N1` (stereo not drawn) [Compound 147], the IC50 on PTPN2 is 1000 to 10000 nM; on PTP1B it was ≤ 1000 nM.

Turning to `Cn1c(=O)c(NCCCC#N)cc2cc(N3CC(=O)NS3(=O)=O)c(O)cc21` [Compound 148], the IC50 at PTPN2 and on PTP1B was ≤ 1000 nM in each case.

In the case of `CC(C)CCCc1cc2cc(N3CC(=O)NS3(=O)=O)c(O)cc2n(C)c1=O` [Compound 152], the IC50 at PTPN2 and on PTP1B was ≤ 1000 nM each time.

With `CC(C)Oc1cc2c(F)c(N3CC(=O)NS3(=O)=O)c(O)cc2n(C)c1=O` [Compound 156], the IC50 on PTPN2 and on PTP1B was ≤ 1000 nM each time.

Turning to `CC(C)CCn1ccc2cc(O)c(N3CC(=O)NS3(=O)=O)c(F)c2c1=O` [Compound 157], the IC50 at PTPN2 and at PTP1B was 1000 to 10000 nM throughout.

Turning to `N#Cc1cccc(CCOc2ccc3cc(O)c(N4CC(=O)NS4(=O)=O)cc3n2)c1` [Compound 159], the IC50 at PTPN2 and at PTP1B was ≤ 1000 nM each time.

Turning to `CC(C)CCOc1cc2cc(N3CC(=O)NS3(=O)=O)c(O)cc2n(C)c1=O` [Compound 160], the IC50 on PTPN2 and on PTP1B was ≤ 1000 nM throughout.

`Cn1c(=O)c(C#N)cc2cc(N3CC(=O)NS3(=O)=O)c(O)cc21` [Compound 161]: the IC50 on PTPN2 and at PTP1B was > 10000 nM throughout.

On to `C[C@@H](Nc1cc2cc(N3CC(=O)NS3(=O)=O)c(O)cc2n(C)c1=O)c1ccccc1` [Compound 162], for which the IC50 on PTPN2 and on PTP1B was ≤ 1000 nM in each case.

For the compound `O=C1CN(c2cc3nc(OCCN4CCC4)ccc3cc2O)S(=O)(=O)N1` [Compound 163], the IC50 at PTPN2 and at PTP1B was > 10000 nM throughout.

`Cn1c(=O)c(NCCC#N)cc2cc(N3CC(=O)NS3(=O)=O)c(O)cc21` [Compound 164]: the IC50 on PTPN2 and on PTP1B was ≤ 1000 nM in each case.

Regarding `CCN1CCC(Nc2cc3cc(N4CC(=O)NS4(=O)=O)c(O)cc3n(C)c2=O)CC1` [Compound 166], the half-inhibitory concentration (IC50) on PTPN2 and at PTP1B was 1000 to 10000 nM throughout.

Consider `O=C1CN(c2cc3nc(OCCc4ccccc4)ccc3cc2O)S(=O)(=O)N1` [Compound 167], for which the IC50 on PTPN2 and on PTP1B was ≤ 1000 nM in each case.

As for `Cn1c(=O)c(NCCC2CC2)cc2cc(N3CC(=O)NS3(=O)=O)c(O)cc21` [Compound 168], the IC50 at PTPN2 was 1000 to 10000 nM; on PTP1B it was ≤ 1000 nM.

As for `Cn1c(=O)c(N2CCCCC2)cc2cc(N3CC(=O)NS3(=O)=O)c(O)cc21` [Compound 169], the IC50 at PTPN2 and on PTP1B was 1000 to 10000 nM each time.

Regarding `O=C1CN(c2cc3cc(C(=O)NCCc4ccccc4)sc3cc2O)S(=O)(=O)N1` [Compound 170], the IC50 at PTPN2 and at PTP1B was ≤ 1000 nM each time.

In the case of `CCN1CCC(CNc2cc3cc(N4CC(=O)NS4(=O)=O)c(O)cc3n(C)c2=O)CC1` [Compound 171], the IC50 on PTPN2 and at PTP1B was ≤ 1000 nM each time.

Regarding `CN(C)C1CN(c2cc3cc(N4CC(=O)NS4(=O)=O)c(O)cc3n(C)c2=O)C1` [Compound 172], the IC50 on PTPN2 and at PTP1B was 1000 to 10000 nM in each case.

As to `Cn1c(=O)c(NCC(C)(F)F)cc2cc(N3CC(=O)NS3(=O)=O)c(O)cc21` [Compound 173], the IC50 on PTPN2 and on PTP1B was ≤ 1000 nM each time.

For `CCN1CC(Nc2cc3cc(N4CC(=O)NS4(=O)=O)c(O)cc3n(C)c2=O)C1` [Compound 174], the IC50 on PTPN2 was 1000 to 10000 nM; on PTP1B it was ≤ 1000 nM.

For the compound `N#CCCCOc1ccc2cc(O)c(N3CC(=O)NS3(=O)=O)cc2n1` [Compound 175], the IC50 on PTPN2 and at PTP1B was ≤ 1000 nM each time.

Turning to `Cn1c(=O)c(NCc2ccccc2)cc2cc(N3CC(=O)NS3(=O)=O)c(O)cc21` [Compound 177], the IC50 on PTPN2 and at PTP1B was ≤ 1000 nM in each case.

Turning to `Cn1c(=O)c(NCCC2CCCC2)cc2c(F)c(N3CC(=O)NS3(=O)=O)c(O)cc21` [Compound 179], the IC50 on PTPN2 and at PTP1B was ≤ 1000 nM throughout.

For the compound `Cn1c(=O)c(NCc2ccccc2)cc2c(F)c(N3CC(=O)NS3(=O)=O)c(O)cc21` [Compound 180], the IC50 on PTPN2 and on PTP1B was ≤ 1000 nM throughout.

Regarding `CC(C)CC#Cc1cc2cc(N3CC(=O)NS3(=O)=O)c(O)cc2n(C)c1=O` [Compound 181], the IC50 at PTPN2 and at PTP1B was ≤ 1000 nM throughout.

For `CC(C)CCOc1ccc2cc(O)c(N3CC(=O)NS3(=O)=O)cc2n1` [Compound 182], the 50% inhibitory concentration (IC50) at PTPN2 and on PTP1B was ≤ 1000 nM each time.

Take `Cn1c(=O)c(O)cc2c(F)c(N3CC(=O)NS3(=O)=O)c(O)cc21` [Compound 184]: the results for the IC50 on PTPN2 and at PTP1B were 1000 to 10000 nM and ≤ 1000 nM, respectively.

As to `CC(C)CCNc1ccc2cc(O)c(N3CC(=O)NS3(=O)=O)cc2n1` [Compound 187], the IC50 at PTPN2 and at PTP1B was > 10000 nM each time.

As to `O=C1CN(c2cc3nc(-c4cnn(CC5CC5)c4)ccc3cc2O)S(=O)(=O)N1` [Compound 188], the IC50 at PTPN2 and at PTP1B was ≤ 1000 nM throughout.

With `O=C1CN(c2cc3nc(OCCc4ccc(F)cc4)ccc3cc2O)S(=O)(=O)N1` [Compound 189], the IC50 on PTPN2 and at PTP1B was ≤ 1000 nM each time.

In the case of `Cn1c(=O)c(NC2CCN(S(C)(=O)=O)C2)cc2cc(N3CC(=O)NS3(=O)=O)c(O)cc21` (stereo not drawn) [Compound 191], the IC50 on PTPN2 and at PTP1B was ≤ 1000 nM in each case.

Regarding `Cn1c(=O)c(NCCCCC#N)cc2cc(N3CC(=O)NS3(=O)=O)c(O)cc21` [Compound 193], the IC50 on PTPN2 and at PTP1B was ≤ 1000 nM in each case.

In the case of `C[C@H](Nc1cc2cc(N3CC(=O)NS3(=O)=O)c(O)cc2n(C)c1=O)c1ccccc1` [Compound 194], the results for the IC50 at PTPN2 and at PTP1B were 1000 to 10000 nM and ≤ 1000 nM, respectively.

On to `CC(C)OCCNc1cc2cc(N3CC(=O)NS3(=O)=O)c(O)cc2n(C)c1=O` [Compound 195], for which the IC50 at PTPN2 and at PTP1B was ≤ 1000 nM each time.

`CC(C)CCn1cnc2cc(O)c(N3CC(=O)NS3(=O)=O)cc2c1=O` [Compound 196]: the IC50 at PTPN2 and on PTP1B was > 10000 nM throughout.

In the case of `O=C1CN(c2c(O)cc3sc(C(=O)NCCc4ccccc4)cc3c2F)S(=O)(=O)N1` [Compound 198], the IC50 on PTPN2 and on PTP1B was ≤ 1000 nM each time.

With `CC(C)CCn1ccc2cc(O)c(N3CC(=O)NS3(=O)=O)cc2c1=O` [Compound 199], the IC50 at PTPN2 and on PTP1B was > 10000 nM in each case.

In general, IC50 refers to the concentration that inhibits the measured activity by half.
